Test: Hematology assays in cynomolgus monkeys (Example 45)
Assay type: in vivo
Settings: for MCH / MCHC / MCV / RBC count / WBC count / hematocrit / hemoglobin: escalating dose regimen
Protocol: Groups, each consisting of two male and three female monkeys, were injected subcutaneously with ISIS 416838, ISIS 416850, ISIS 416858, ISIS 416864, or ISIS 417002 in escalating doses. Antisense oligonucleotide was administered to the monkeys at 5 mg/kg three times per a week for week 1; 5 mg/kg twice per week for weeks 2 and 3; 10 mg/kg three times per week for week 4; 10 mg/kg twice per week for weeks 5 and 6; 25 mg/kg three times per week for week 7; and 25 mg/kg twice per week for weeks 8, 9, 10, 11, and 12. One control group, consisting of two male and three female monkeys, was injected subcutaneously with PBS according to the same dosing regimen. An additional experimental group, consisting of two male and three female monkeys, was injected subcutaneously with ISIS 416850 in a chronic, lower dose regimen. Antisense oligonucleotide was administered to the monkeys at 5 mg/kg three times per week for week 1; 5 mg/kg twice per week for week 2 and 3; 10 mg/kg three times per week for week 4; and 10 mg/kg twice per week for weeks 5 to 12. Body weights were measured weekly. Blood samples were collected 14 days and 5 days before the start of treatment and subsequently once per week for Factor 11 protein activity analysis in plasma, fibrinogen measurement, PT and aPTT measurements, bleeding times, and measurement of various hematologic factors. On day 85, the monkeys were euthanized by exsanguination while under deep anesthesia, and organs harvested for further analysis.
The ISIS oligonucleotide, ISIS 416850, given with the chronic dose regimen is distinguished from the other oligonucleotides with an asterisk (*).

Substance: ISIS 416838: MOE gapmer, nucleobases 1018 to 1042 of SEQ ID NO: 1 (Table 6) (antisense GCAACCGGGATGATGAGTGC; MOE gapmer, wing and gap sizes not given here)
- MCH (Day 64): 23 pg
- MCH (Day 71): 23 pg
- MCH (Day 78): 23 pg
- MCH (Day 85): 23 pg
- basophils (day 8): 0.2%
- eosinophils (day 8): 0.4%
- lymphocytes (day 8): 54%
- monocytes (day 8): 2.5%
- neutrophils (day 8): 42%
- platelet count (day 8): 387000 µL⁻¹
- reticulocytes (day 8): 1.2%
- MCH (day 8): 23 pg
- MCHC (day 8): 30 g/dL
- MCV (day 8): 77 fL
- RBC count (day 8): 5.7e+06 µL⁻¹
- WBC count (day 8): 10000 µL⁻¹
- hematocrit (day 8): 43%
- hemoglobin (day 8): 12.9 g/dL
- basophils (day 15): 0.3%
- eosinophils (day 15): 0.3%
- lymphocytes (day 15): 53%
- monocytes (day 15): 2.4%
- neutrophils (day 15): 43%
- platelet count (day 15): 387000 µL⁻¹
- reticulocytes (day 15): 1.2%
- MCH (day 15): 23 pg
- MCHC (day 15): 31 g/dL
- MCV (day 15): 75 fL
- RBC count (day 15): 5.6e+06 µL⁻¹
- WBC count (day 15): 10000 µL⁻¹
- hematocrit (day 15): 42%
- hemoglobin (day 15): 12.9 g/dL
- basophils (day 22): 0.2%
- eosinophils (day 22): 0.5%
- lymphocytes (day 22): 59%
- monocytes (day 22): 2.9%
- neutrophils (day 22): 37%
- platelet count (day 22): 319000 µL⁻¹
- reticulocytes (day 22): 1.2%
- MCH (day 22): 23 pg
- MCHC (day 22): 29 g/dL
- MCV (day 22): 80 fL
- RBC count (day 22): 5.4e+06 µL⁻¹
- WBC count (day 22): 11000 µL⁻¹
- hematocrit (day 22): 43%
- hemoglobin (day 22): 12.5 g/dL
- basophils (day 29): 0.2%
- eosinophils (day 29): 0.3%
- lymphocytes (day 29): 59%
- monocytes (day 29): 3.2%
- neutrophils (day 29): 36%
- platelet count (day 29): 337000 µL⁻¹
- reticulocytes (day 29): 1.6%
- MCH (day 29): 23 pg
- MCHC (day 29): 29 g/dL
- MCV (day 29): 81 fL
- RBC count (day 29): 5.3e+06 µL⁻¹
- WBC count (day 29): 11000 µL⁻¹
- hematocrit (day 29): 43%
- hemoglobin (day 29): 12.4 g/dL
- basophils (day 36): 0.4%
- eosinophils (day 36): 0.5%
- lymphocytes (day 36): 57%
- monocytes (day 36): 2.5%
- neutrophils (day 36): 39%
- platelet count (day 36): 370000 µL⁻¹
- reticulocytes (day 36): 1.6%
- MCH (day 36): 23 pg
- MCHC (day 36): 30 g/dL
- MCV (day 36): 78 fL
- RBC count (day 36): 5.5e+06 µL⁻¹
- WBC count (day 36): 10000 µL⁻¹
- hematocrit (day 36): 43%
- hemoglobin (day 36): 12.8 g/dL
- basophils (day 43): 0.4%
- eosinophils (day 43): 0.6%
- lymphocytes (day 43): 65%
- monocytes (day 43): 3.3%
- neutrophils (day 43): 30%
- platelet count (day 43): 365000 µL⁻¹
- reticulocytes (day 43): 1.2%
- MCH (day 43): 23 pg
- MCHC (day 43): 30 g/dL
- MCV (day 43): 78 fL
- RBC count (day 43): 5.6e+06 µL⁻¹
- WBC count (day 43): 10000 µL⁻¹
- hematocrit (day 43): 43%
- hemoglobin (day 43): 12.7 g/dL
- basophils (day 50): 0.3%
- eosinophils (day 50): 0.8%
- lymphocytes (day 50): 64%
- monocytes (day 50): 3.2%
- neutrophils (day 50): 31%
- platelet count (day 50): 372000 µL⁻¹
- reticulocytes (day 50): 1.6%
- MCH (day 50): 23 pg
- MCHC (day 50): 28 g/dL
- MCV (day 50): 80 fL
- RBC count (day 50): 5.5e+06 µL⁻¹
- WBC count (day 50): 11000 µL⁻¹
- hematocrit (day 50): 44%
- hemoglobin (day 50): 12.3 g/dL
- basophils (day 57): 0.3%
- eosinophils (day 57): 0.6%
- lymphocytes (day 57): 63%
- monocytes (day 57): 3.2%
- neutrophils (day 57): 32%
- platelet count (day 57): 371000 µL⁻¹
- reticulocytes (day 57): 1.5%
- MCH (day 57): 23 pg
- MCHC (day 57): 29 g/dL
- MCV (day 57): 79 fL
- RBC count (day 57): 5.5e+06 µL⁻¹
- WBC count (day 57): 12000 µL⁻¹
- hematocrit (day 57): 43%
- hemoglobin (day 57): 12.6 g/dL
- basophils (day 64): 0.4%
- eosinophils (day 64): 0.7%
- lymphocytes (day 64): 64%
- monocytes (day 64): 3.5%
- neutrophils (day 64): 30%
- platelet count (day 64): 358000 µL⁻¹
- reticulocytes (day 64): 1.3%
- MCHC (day 64): 29 g/dL
- MCV (day 64): 79 fL
- RBC count (day 64): 5.6e+06 µL⁻¹
- WBC count (day 64): 13000 µL⁻¹
- hematocrit (day 64): 44%
- hemoglobin (day 64): 12.6 g/dL
- basophils (day 71): 0.5%
- eosinophils (day 71): 0.8%
- lymphocytes (day 71): 65%
- monocytes (day 71): 4.3%
- neutrophils (day 71): 28%
- platelet count (day 71): 365000 µL⁻¹
- reticulocytes (day 71): 1.3%
- MCHC (day 71): 29 g/dL
- MCV (day 71): 80 fL
- RBC count (day 71): 5.5e+06 µL⁻¹
- WBC count (day 71): 15000 µL⁻¹
- hematocrit (day 71): 44%
- hemoglobin (day 71): 12.7 g/dL
- basophils (day 78): 0.4%
- eosinophils (day 78): 0.9%
- lymphocytes (day 78): 60%
- monocytes (day 78): 3.6%
- neutrophils (day 78): 35%
- platelet count (day 78): 348000 µL⁻¹
- reticulocytes (day 78): 1.4%
- MCHC (day 78): 30 g/dL
- MCV (day 78): 76 fL
- RBC count (day 78): 5.4e+06 µL⁻¹
- WBC count (day 78): 11000 µL⁻¹
- hematocrit (day 78): 41%
- hemoglobin (day 78): 12.5 g/dL
- basophils (day 85): 0.3%
- eosinophils (day 85): 1.5%
- lymphocytes (day 85): 72%
- monocytes (day 85): 3.7%
- neutrophils (day 85): 22%
- platelet count (day 85): 344000 µL⁻¹
- reticulocytes (day 85): 1.5%
- MCHC (day 85): 30 g/dL
- MCV (day 85): 77 fL
- RBC count (day 85): 5.5e+06 µL⁻¹
- WBC count (day 85): 12000 µL⁻¹
- hematocrit (day 85): 42%
- hemoglobin (day 85): 12.4 g/dL
- basophils (day −5): 0.3%
- eosinophils (day −5): 0.6%
- lymphocytes (day −5): 59%
- monocytes (day −5): 3.6%
- neutrophils (day −5): 35%
- platelet count (day −5): 425000 µL⁻¹
- reticulocytes (day −5): 0.9%
- MCH (day −5): 23 pg
- MCHC (day −5): 31 g/dL
- MCV (day −5): 76 fL
- RBC count (day −5): 5.6e+06 µL⁻¹
- WBC count (day −5): 12000 µL⁻¹
- hematocrit (day −5): 42%
- hemoglobin (day −5): 13.1 g/dL
- basophils (day −14): 0.2%
- eosinophils (day −14): 0.6%
- lymphocytes (day −14): 59%
- monocytes (day −14): 3.1%
- neutrophils (day −14): 36%
- platelet count (day −14): 377000 µL⁻¹
- reticulocytes (day −14): 1.0%
- MCH (day −14): 23 pg
- MCHC (day −14): 30 g/dL
- MCV (day −14): 77 fL
- RBC count (day −14): 5.6e+06 µL⁻¹
- WBC count (day −14): 12000 µL⁻¹
- hematocrit (day −14): 42%
- hemoglobin (day −14): 12.9 g/dL

From US20230263822A1, “MODULATION OF FACTOR 11 EXPRESSION” (Ionis Pharmaceuticals, Inc., priority 2008, published 2023)
